How the values were obtained:
Format in all cases: functional
HCC 2998 = experiment: Cytotoxicity against Homo sapiens (human) HCC2998 cells after 48 hr by SRB assay; details: HCC 2998, 48 h
PC-3 = experiment: Cytotoxicity against Homo sapiens (human) PC3 cells after 48 hr by SRB assay; details: PC-3, 48 h
SK-MEL-2 = experiment: Cytotoxicity against Homo sapiens (human) SK-MEL-2 cells after 48 hr by SRB assay; details: SK-MEL-2, 48 h
MOLT-4 = experiment: Cytotoxicity against Homo sapiens (human) MOLT4 cells after 48 hr by SRB assay; details: MOLT-4, 48 h
HOP-62 = experiment: Cytotoxicity against Homo sapiens (human) HOP62 cells after 48 hr by SRB assay; details: HOP-62, 48 h
OVCAR-3 = experiment: Cytotoxicity against Homo sapiens (human) OVCAR3 cells after 48 hr by SRB assay; details: OVCAR-3, 48 h
K562 = experiment: Cytotoxicity against Homo sapiens (human) K562 cells after 48 hr by SRB assay; details: K562, 48 h
NCI-H23 = experiment: Cytotoxicity against Homo sapiens (human) NCI-H23 cells after 48 hr by SRB assay; details: NCI-H23, 48 h
ACHN = experiment: Cytotoxicity against Homo sapiens (human) ACHN cells after 48 hr by SRB assay
MDA-MB-231 = experiment: Cytotoxicity against Homo sapiens (human) MDA-MB-231 cells after 48 hr by SRB assay; details: MDA-MB-231, 48 h
TK-10 = experiment: Cytotoxicity against Homo sapiens (human) TK10 cells after 48 hr by SRB assay; details: TK-10, 48 h
IGROV-1 = experiment: Cytotoxicity against Homo sapiens (human) IGROV1 cells after 48 hr by SRB assay; details: IGROV-1, 48 h
BT-549 = experiment: Cytotoxicity against Homo sapiens (human) BT549 cells after 48 hr by SRB assay; details: BT-549, 48 h
SK-MEL-5 = experiment: Cytotoxicity against Homo sapiens (human) SK-MEL-5 cells after 48 hr by SRB assay; details: SK-MEL-5, 48 h
A498 = experiment: Cytotoxicity against Homo sapiens (human) A498 cells after 48 hr by SRB assay; details: A498, 48 h
OVCAR-5 = experiment: Cytotoxicity against Homo sapiens (human) OVCAR5 cells after 48 hr by SRB assay; details: OVCAR-5, 48 h
RXF 393 = experiment: Cytotoxicity against Homo sapiens (human) RXF393 cells after 48 hr by SRB assay; details: RXF 393, 48 h
CCRF-CEM = experiment: Cytotoxicity against Homo sapiens (human) CCRF-CEM cells after 48 hr by SRB assay
SF-295 = experiment: Cytotoxicity against Homo sapiens (human) SF295 cells after 48 hr by SRB assay; details: SF-295, 48 h
Hs-578T = experiment: Cytotoxicity against Homo sapiens (human) Hs 578T cells after 48 hr by SRB assay
OVCAR-4 = experiment: Cytotoxicity against Homo sapiens (human) OVCAR4 cells after 48 hr by SRB assay; details: OVCAR-4, 48 h
NCI-H226 = experiment: Cytotoxicity against Homo sapiens (human) NCI-H226 cells after 48 hr by SRB assay; details: NCI-H226, 48 h
HCT-15 = experiment: Cytotoxicity against Homo sapiens (human) HCT15 cells after 48 hr by SRB assay; details: HCT-15, 48 h
HOP-92 = experiment: Cytotoxicity against Homo sapiens (human) HOP92 cells after 48 hr by SRB assay; details: HOP-92, 48 h
UACC-62 = experiment: Cytotoxicity against Homo sapiens (human) UACC62 cells after 48 hr by SRB assay; details: UACC-62, 48 h
HL-60(TB) = experiment: Cytotoxicity against Homo sapiens (human) HL-60(TB) cells after 48 hr by SRB assay; details: HL-60, 48 h
NCI-H322M = experiment: Cytotoxicity against Homo sapiens (human) NCI-H322M cells after 48 hr by SRB assay
SK-OV-3 = experiment: Cytotoxicity against Homo sapiens (human) SKOV3 cells after 48 hr by SRB assay; details: SK-OV-3, 48 h
A549 = experiment: Cytotoxicity against Homo sapiens (human) A549 cells after 48 hr by SRB assay; details: A549, 48 h
DU-145 = experiment: Cytotoxicity against Homo sapiens (human) DU145 cells after 48 hr by SRB assay; details: DU-145, 48 h
HCT-116 = experiment: Cytotoxicity against Homo sapiens (human) HCT116 cells after 48 hr by SRB assay; details: HCT-116, 48 h
KM12 = experiment: Cytotoxicity against Homo sapiens (human) KM12 cells after 48 hr by SRB assay; details: KM12, 48 h
SF-539 = experiment: Cytotoxicity against Homo sapiens (human) SF539 cells after 48 hr by SRB assay; details: SF-539, 48 h
UACC-257 = experiment: Cytotoxicity against Homo sapiens (human) UACC257 cells after 48 hr by SRB assay; details: UACC-257, 48 h
[1] = read-out: LC50 (the source's name)

## Nc1cc(-c2ccc(Cl)cc2)nn1-c1nc(=O)c(/C=C/c2ccco2)n[nH]1
HCC 2998
  TGI: > 100 µM
HCC 2998; read-out: GI50
  GI50: 5.59 µM
HCC 2998; [1]
  CC50: > 100 µM
HCC 2998; read-out: pGI50 (converted)
  GI50: 5.62 µM
PC-3
  LC50 (50% lethal concentration): > 100 µM
  TGI: 56.2 µM
PC-3; read-out: GI50
  GI50: 5.6 µM
PC-3; read-out: pGI50 (converted)
  GI50: 5.62 µM
SK-MEL-2
  TGI: 77.9 µM
SK-MEL-2; read-out: GI50
  GI50: 15.6 µM
SK-MEL-2; [1]
  CC50: > 100 µM
SK-MEL-2; read-out: pGI50 (converted)
  GI50: 15.5 µM
MOLT-4
  TGI: 18.5 µM
MOLT-4; read-out: GI50
  GI50: 2.01 µM
MOLT-4; [1]
  CC50: > 100 µM
MOLT-4; read-out: pGI50 (converted)
  GI50: 2 µM
HOP-62
  LC50 (concentration killing 50% of cells): > 100 µM
  TGI: 76.8 µM
HOP-62; read-out: GI50
  GI50: 5.77 µM
HOP-62; read-out: pGI50 (converted)
  GI50: 5.75 µM
OVCAR-3
  LC50 (50% lethal concentration): 31.8 µM
  TGI: 5.2 µM
OVCAR-3; read-out: GI50
  GI50: 1.48 µM
OVCAR-3; read-out: pGI50 (converted)
  GI50: 1.48 µM
K562
  LC50: > 100 µM
  TGI: 23 µM
K562; read-out: GI50
  GI50: 2.79 µM
K562; read-out: pGI50 (converted)
  GI50: 2.75 µM
NCI-H23
  TGI: 53.9 µM
NCI-H23; read-out: GI50
  GI50: 5.13 µM
NCI-H23; [1]
  CC50: > 100 µM
NCI-H23; read-out: pGI50 (converted)
  GI50: 5.13 µM
ACHN
  LC50: > 100 µM
  TGI: 24.8 µM
ACHN; read-out: GI50
  GI50: 3.8 µM
ACHN; read-out: pGI50 (converted)
  GI50: 3.8 µM
MDA-MB-231
  LC50 (lethal concentration, 50%): > 100 µM
  TGI: > 100 µM
MDA-MB-231; read-out: GI50
  GI50: 13.9 µM
MDA-MB-231; read-out: pGI50 (converted)
  GI50: 13.8 µM
TK-10
  LC50: > 100 µM
  TGI: 23.1 µM
TK-10; read-out: GI50
  GI50: 3.64 µM
TK-10; read-out: pGI50 (converted)
  GI50: 3.63 µM
IGROV-1
  LC50 (concentration killing 50% of cells): > 100 µM
  TGI: 37.8 µM
IGROV-1; read-out: GI50
  GI50: 4.89 µM
IGROV-1; read-out: pGI50 (converted)
  GI50: 4.9 µM
BT-549
  TGI: 43.8 µM
BT-549; read-out: GI50
  GI50: 4.42 µM
BT-549; [1]
  CC50: > 100 µM
BT-549; read-out: pGI50 (converted)
  GI50: 4.47 µM
SK-MEL-5
  TGI: 24.8 µM
SK-MEL-5; read-out: GI50
  GI50: 3.83 µM
SK-MEL-5; [1]
  CC50: > 100 µM
SK-MEL-5; read-out: pGI50 (converted)
  GI50: 3.8 µM
A498
  LC50: > 100 µM
  TGI: 6.62 µM
A498; read-out: GI50
  GI50: 1.62 µM
A498; read-out: pGI50 (converted)
  GI50: 1.62 µM
OVCAR-5
  LC50 (50% lethal concentration): > 100 µM
  TGI: 82 µM
OVCAR-5; read-out: GI50
  GI50: 5.49 µM
OVCAR-5; read-out: pGI50 (converted)
  GI50: 5.5 µM
RXF 393
  LC50: > 100 µM
  TGI: 54.9 µM
RXF 393; read-out: GI50
  GI50: 13.1 µM
RXF 393; read-out: pGI50 (converted)
  GI50: 13.2 µM
CCRF-CEM
  LC50: > 100 µM
  TGI: 16.8 µM
CCRF-CEM; read-out: GI50
  GI50: 2.88 µM
CCRF-CEM; read-out: pGI50 (converted)
  GI50: 2.88 µM
SF-295
  TGI: 24.3 µM
SF-295; read-out: GI50
  GI50: 1.58 µM
SF-295; [1]
  CC50: > 100 µM
SF-295; read-out: pGI50 (converted)
  GI50: 1.58 µM
Hs-578T
  GI50: 8.51 µM
OVCAR-4
  LC50: > 100 µM
  TGI: 28.8 µM
OVCAR-4; read-out: GI50
  GI50: 3.45 µM
OVCAR-4; read-out: pGI50 (converted)
  GI50: 3.47 µM
NCI-H226
  LC50 (lethal concentration, 50% cell kill): > 100 µM
  TGI: 75.6 µM
NCI-H226; read-out: GI50
  GI50: 12.2 µM
NCI-H226; read-out: pGI50 (converted)
  GI50: 12.3 µM
HCT-15
  TGI: > 100 µM
HCT-15; read-out: GI50
  GI50: 1.89 µM
HCT-15; [1]
  CC50: > 100 µM
HCT-15; read-out: pGI50 (converted)
  GI50: 1.91 µM
HOP-92
  LC50: > 100 µM
  TGI: 9.28 µM
HOP-92; read-out: GI50
  GI50: 1.61 µM
HOP-92; read-out: pGI50 (converted)
  GI50: 1.62 µM
UACC-62
  LC50 (concentration killing 50% of cells): > 100 µM
  TGI: > 100 µM
UACC-62; read-out: GI50
  GI50: 5.07 µM
UACC-62; read-out: pGI50 (converted)
  GI50: 5.01 µM
HL-60(TB)
  LC50: > 100 µM
  TGI: 8.19 µM
HL-60(TB); read-out: GI50
  GI50: 2.83 µM
HL-60(TB); read-out: pGI50 (converted)
  GI50: 2.82 µM
NCI-H322M
  TGI: 38.2 µM
NCI-H322M; read-out: GI50
  GI50: 1.47 µM
NCI-H322M; [1]
  CC50: > 100 µM
NCI-H322M; read-out: pGI50 (converted)
  GI50: 1.48 µM
SK-OV-3
  LC50: > 100 µM
  TGI: 7.43 µM
SK-OV-3; read-out: GI50
  GI50: 5.58 µM
SK-OV-3; read-out: pGI50 (converted)
  GI50: 5.62 µM
A549
  LC50: > 100 µM
  TGI: 34.2 µM
A549; read-out: GI50
  GI50: 3.48 µM
A549; read-out: pGI50 (converted)
  GI50: 3.47 µM
DU-145
  LC50: 55.4 µM
  TGI: 18.3 µM
DU-145; read-out: GI50
  GI50: 3.01 µM
DU-145; read-out: pGI50 (converted)
  GI50: 3.02 µM
HCT-116
  TGI: 15.6 µM
HCT-116; read-out: GI50
  GI50: 2.92 µM
HCT-116; [1]
  CC50: > 100 µM
HCT-116; read-out: pGI50 (converted)
  GI50: 2.88 µM
KM12
  TGI: 32 µM
KM12; read-out: GI50
  GI50: 3.19 µM
KM12; [1]
  CC50: > 100 µM
KM12; read-out: pGI50 (converted)
  GI50: 3.16 µM
SF-539
  TGI: 26.1 µM
SF-539; read-out: GI50
  GI50: 5.49 µM
SF-539; [1]
  CC50: > 100 µM
SF-539; read-out: pGI50 (converted)
  GI50: 5.5 µM
UACC-257
  LC50: > 100 µM
  TGI: 71.8 µM
UACC-257; read-out: GI50
  GI50: 6.59 µM
UACC-257; read-out: pGI50 (converted)
  GI50: 6.61 µM

— ChEMBL document CHEMBL3045199, “Synthesis of some (E)-6-[2-(furan-2-yl)ethenyl]-1,2,4-triazin-5-ones and their biological evaluation as antitumor agents” (2013)
